Data as given in patent US20250120987A1, “METHOD FOR TREATING CANCER USING HUMAN MIT[…] ENZYME 2 INHIBITOR” (priority 2023, published 2025).

Tests used:
HL-60 cells [1] = experiment: Cell survival assay; assay type: cell-based, human
Protocol: (§1) In the following assay, therefore, the NazEA dosage of 150 μM was used.

MV4-11 cells [2] = experiment: Cell survival assay; assay type: cell-based, human
Protocol: as §1

THP-1 cells [3] = experiment: Cell survival assay; assay type: cell-based, human
Protocol: as §1

HL-60 cells [4] = experiment: Apoptosis rate (Annexin V, flow cytometer); assay type: cell-based, human; conditions: 150 μM
Protocol: (§2) HL-60 cells, THP-1 cells, and MV4-11 cells were each divided into two groups, namely a vehicle group to be cultured in an RPMI culture medium and a group to be cultured in an RPMI culture medium containing 150 μM Na2EA. After culturing for 24 hours, the culture media were renewed. After culturing for another 48 hours, a commercially available apoptosis detection kit (Annexin V Apoptosis Detection Kit) and flow cytometer were used to analyze the apoptosis rates of the cells, and the results are shown in FIG. 34. In addition, a commercially available cell viability assay kit (CellTiter-Glo® 2.0 Cell Viability Assay Kit), a NAD/NADH-Glo™ assay kit, a commercially available intracellular ROS assay kit (#cat.MAK143, Sigma-Aldrich, St. Louis, MO, USA), and a commercially available pyruvate colorimetric/fluorometric assay kit were used to analyze the NADPH, ROS, and ATP contents of each group of cells, and the results are shown in FIG. 35 to FIG. 37.

MV4-11 cells [5] = experiment: Apoptosis rate (Annexin V, flow cytometer); assay type: cell-based, human; conditions: 150 μM
Protocol: as §2

THP-1 cells [6] = experiment: Apoptosis rate (Annexin V, flow cytometer); assay type: cell-based, human; conditions: 150 μM
Protocol: as §2

HL-60 cells [7] = experiment: Metabolite contents of AML cells (NADPH, ROS, ATP, pyruvate, NADH, glutamic acid); assay type: cell-based, human; conditions: 150 μM
Protocol: as §2
(§3) Furthermore, the cells in each group were stained with ATP-Red Live Cell Dye (BioTracker™ ATP-Red Live Cell Dye) and were observed and quantified under a fluorescence microscope, with the quantification results shown in FIG. 38. The oxygen consumption rate of each group of cells was also determined in the same way as in example 6, with the introduction of different stress testing conditions, and the results are shown in FIG. 39 to FIG. 44.
(§4) Besides, the […], pyruvate, NAD^+, NADH, and glutamic acid contents of each group of cells were analyzed with a NAD/NADH-Glo™ assay kit, a commercially available pyruvate colorimetric/fluorometric assay kit, and a commercially available Glutamine/Glutamate-Glo™ assay kit (#Cat. J8021; Promega, Madison, WI, USA) in the same way as in example 9, and the results are shown in FIG. 45 to FIG. 48.

MV4-11 cells [8] = experiment: as above; assay type: cell-based, human; conditions: 150 μM
Protocol: as §2, §3, §4

THP-1 cells [9] = experiment: as above; assay type: cell-based, human; conditions: 150 μM
Protocol: as §2, §3, §4

HL-60 cells [10] = experiment: Oxygen consumption rate of AML cells; assay type: cell-based, human; conditions: 150 μM
THP-1 cells [11] = experiment: Oxygen consumption rate of AML cells; assay type: cell-based, human; conditions: 150 μM
MV4-11 cells [12] = experiment: Oxygen consumption rate of AML cells; assay type: cell-based, human; conditions: 150 μM
HL-60 cells [13] = experiment: Mass spectrometric analysis of metabolic intermediates; assay type: cell-based, human; conditions: 150 μM, UPLC-MS
Protocol: The Na2EA-treated HL-60 cells (1×10^7 cells) and the HL-60 cells untreated with NazEA (1×10^7 cells) in example 10 were taken, added into 1 mL of 80% methanol, and centrifuged at 4° C. and 12,000×g for 10 minutes. After the supernatants were evaporated with nitrogen gas, an analysis was performed using a Waters ultra-high performance liquid chromatograph coupled with Waters Xevo TQ-S MS (Waters Corp. Milford, MA, USA).

THP-1 cells [14] = experiment: Animal test, ASID mice transplanted with THP-1 cells; assay type: in vivo; conditions: 4 mg/kg, intravenous, day 21
Protocol: (§5) A plurality of 8-week-old ASID mice (or mice with advanced severe immunodeficiency, or more specifically NOD.Cg-Prkde^scidIl2rg^tm1Wjl/YckNarl mice) were randomly divided into 6 groups. Each group of mice was intravenously injected with one of a plurality of differently treated AML cell variants at a frequency of 5 days per week for 4 weeks. The AML cell variants injected into the 6 groups of mice are as follows: • Group 1-1: THP-1 cells • Group 2-1: THP-1 cells with EA (at a dosage of 4 mg/kg) • Group 3-1: THP-1 cells with Na2EA (at a dosage of 4 mg/kg) • Group 1-2: MV4-11 cells • Group 2-2: MV4-11 cells with EA (at a dosage of 4 mg/kg) • Group 3-2: MV4-11 cells with Na2EA (at a dosage of 4 mg/kg)
(§6) On the 21st day of the test, peripheral blood was collected from the submandibular vein of the mice, and bone marrow was collected as well. The blood and bone marrow were stained with specific markers (CD33 and CD45) and then reacted with a fluorescent antibody, before the CD33+ or CD45^+-stained cells were quantified with a flow cytometer.

MV4-11 cells [15] = experiment: Animal test, ASID mice transplanted with MV4-11 cells; assay type: in vivo; conditions: 4 mg/kg, intravenous, day 21
Protocol: as §5, §6

O=C(O)c1cc2ccccc2c(Cc2c([O-])c(C(=O)O)cc3ccccc23)c1[O-].[Na+].[Na+] [Na2EA, disodium embonate]
IC50 (HL-60 cells [1]): ~120 µM | IC50 (MV4-11 cells [2]): ~120 µM | IC50 (THP-1 cells [3]): ~120 µM | apoptosis rate (HL-60 cells [4]): 60-75% | apoptosis rate (MV4-11 cells [5]): 60-75% | apoptosis rate (THP-1 cells [6]): 60-75% | ATP content (HL-60 cells [7]): greatly reduced | NAD+/NADH ratio (HL-60 cells [7]): increased | NADH content (HL-60 cells [7]): reduced | NADPH content (HL-60 cells [7]): greatly reduced | ROS steady state (HL-60 cells [7]): destroyed | glutamic acid content (HL-60 cells [7]): increased | pyruvate content (HL-60 cells [7]): reduced | ATP content (MV4-11 cells [8]): greatly reduced | NAD+/NADH ratio (MV4-11 cells [8]): increased | NADH content (MV4-11 cells [8]): reduced | NADPH content (MV4-11 cells [8]): greatly reduced | ROS steady state (MV4-11 cells [8]): destroyed | glutamic acid content (MV4-11 cells [8]): increased | pyruvate content (MV4-11 cells [8]): reduced | ATP content (THP-1 cells [9]): greatly reduced | NAD+/NADH ratio (THP-1 cells [9]): increased | NADH content (THP-1 cells [9]): reduced | NADPH content (THP-1 cells [9]): greatly reduced | ROS steady state (THP-1 cells [9]): destroyed | glutamic acid content (THP-1 cells [9]): increased | pyruvate content (THP-1 cells [9]): reduced | mitochondrial proton leak (HL-60 cells [10]): lowered | oxygen consumption rate (HL-60 cells [10]): lowered | yield of ATP by the mitochondrial electron transport chains (HL-60 cells [10]): lowered | mitochondrial proton leak (THP-1 cells [11]): lowered | oxygen consumption rate (THP-1 cells [11]): lowered | yield of ATP by the mitochondrial electron transport chains (THP-1 cells [11]): lowered | mitochondrial proton leak (MV4-11 cells [12]): lowered | oxygen consumption rate (MV4-11 cells [12]): lowered | yield of ATP by the mitochondrial electron transport chains (MV4-11 cells [12]): lowered | fructose-6-phosphate (F-6-P) content (HL-60 cells [13]): suppress | glucose-1-phosphate (G-1-P) content (HL-60 cells [13]): suppress | glucose-6-phosphate (G-6-P) content (HL-60 cells [13]): suppress | glutamic acid content (HL-60 cells [13]): increasing | glutamine content (HL-60 cells [13]): increasing | AML cells in mice (CD33+ / CD45+ stained cells in peripheral blood and bone marrow) (THP-1 cells [14]): reduce | effectiveness in reducing AML cells compared with EA (THP-1 cells [14]): more effective in reducing AML cells than EA | AML cells in mice (CD33+ / CD45+ stained cells in peripheral blood and bone marrow) (MV4-11 cells [15]): reduce | effectiveness in reducing AML cells compared with EA (MV4-11 cells [15]): more effective in reducing AML cells than EA
